According to US10988456B2, “O-aminoheteroaryl alkynyl-containing compound, preparation method therefor, and use thereof” (SHANGHAI INSTITUTE OF MATERIA MEDICA, CHINESE ACADEMY OF …, priority 2017, dated 2021):

Key:
[1] = system: human gastric cancer SNU-16 xenografts; settings: mouse, in vivo
Method: (§1) The tumor tissue in the vigorous growth period was cut into 1.5 mm^3, and inoculated subcutaneously in the right axilla of nude mice under aseptic conditions. The diameter of the xenograft in nude mice was measured with a vernier caliper. The animals were randomly divided into groups when the average tumor volume was grown to about 190 mm^3. […] The diameter of the xenograft was measured twice a week during the entire experiment, and the body weight of the mice was weighed. The tumor volume (TV) was calculated as: TV=½×a×b^2, where a and b represented length and width, respectively. The relative tumor volume (RTV) was calculated based on the measured results, and the formula was: RTV=Vt/V0, wherein V0 represented the tumor volume obtained when the mice was divided and administered (i.e., d0), and Vt represented the tumor volume at each measurement. The anti-tumor activity evaluation index was the relative tumor proliferation rate T/C (%), and the calculation formula was as follows: T/C (%)=(TRTV/CRTV)×100%, wherein TRTV was TRV in treatment group; and CRTV was RTV in negative control group.

[2] = system: human gastric cancer SNU-16 xenografts; assay: Growth of subcutaneous xenografts of human gastric cancer SNU-16 in nude mice (comparative compounds study); settings: for relative tumor proliferation rate T/C: day 21; for Weight (g, mean ± SD): SNU-16 tumor-bearing mice
Method: as §1

CN1CCN(Cc2ccc(NC(=O)c3ccc(Cl)c(C#Cc4cccnc4)c3)cc2C(F)(F)F)CC1 [HuFGFR1-117]
toxicity / condition of the mice (in words) [1]: dry skin, molting, and poor condition | Relative tumor volume RTV (mean ± SD) ([2]; SNU-16, 20 mg/kg orally once a day, d0): 1.00 ± 0.00 | Relative tumor volume RTV (mean ± SD) ([2]; SNU-16, 20 mg/kg orally once a day, d3): 1.51 ± 0.37 | Relative tumor volume RTV (mean ± SD) ([2]; SNU-16, 20 mg/kg orally once a day, d7): 1.75 ± 0.47 | Relative tumor volume RTV (mean ± SD) ([2]; SNU-16, 20 mg/kg orally once a day, d10): 1.49 ± 0.14 | Relative tumor volume RTV (mean ± SD) ([2]; SNU-16, 20 mg/kg orally once a day, d14): 2.06 ± 0.38 | Relative tumor volume RTV (mean ± SD) ([2]; SNU-16, 20 mg/kg orally once a day, d17): 2.55 ± 0.55 | Relative tumor volume RTV (mean ± SD) ([2]; SNU-16, 20 mg/kg orally once a day, d21): 2.78 ± 0.58 | relative tumor proliferation rate T/C ([2]; SNU-16, 20 mg/kg orally once a day): 47.88% | animal deaths ([2]; SNU-16, 100 mg/kg group): one mouse died on the 9th and 10th day respectively | Relative tumor volume RTV (mean ± SD) ([2]; SNU-16, 100 mg/kg orally once a day (administration interrupted), d0): 1.00 ± 0.00 | Relative tumor volume RTV (mean ± SD) ([2]; SNU-16, 100 mg/kg orally once a day (administration interrupted), d3): 1.53 ± 0.39 | Relative tumor volume RTV (mean ± SD) ([2]; SNU-16, 100 mg/kg orally once a day (administration interrupted), d7): 0.80 ± 0.18 | Relative tumor volume RTV (mean ± SD) ([2]; SNU-16, 100 mg/kg orally once a day (administration interrupted), d10): 0.49 ± 0.08 | Relative tumor volume RTV (mean ± SD) ([2]; SNU-16, 100 mg/kg orally once a day (administration interrupted), d14): 0.51 ± 0.19 | Relative tumor volume RTV (mean ± SD) ([2]; SNU-16, 100 mg/kg orally once a day (administration interrupted), d17): 0.75 ± 0.22 | Relative tumor volume RTV (mean ± SD) ([2]; SNU-16, 100 mg/kg orally once a day (administration interrupted), d21): 0.83 ± 0.31 | relative tumor proliferation rate T/C ([2]; SNU-16, 100 mg/kg orally, administration interrupted): 14.38% | weight of the tumor-bearing mice (in words) ([2]; SNU-16, HuFGFR1-113 at 20 mg/kg, HuFGFR1-117 dose not stated): significantly decreased | Weight (g, mean ± SD) ([2]; 20 mg/kg orally once a day, d0): 22.5 ± 1.9 g | Weight (g, mean ± SD) ([2]; 20 mg/kg orally once a day, d3): 23.6 ± 2.1 g | Weight (g, mean ± SD) ([2]; 20 mg/kg orally once a day, d7): 22.7 ± 2.0 g | Weight (g, mean ± SD) ([2]; 20 mg/kg orally once a day, d10): 22.7 ± 2.3 g | Weight (g, mean ± SD) ([2]; 20 mg/kg orally once a day, d14): 23.6 ± 2.4 g | Weight (g, mean ± SD) ([2]; 20 mg/kg orally once a day, d17): 24.2 ± 2.5 g | Weight (g, mean ± SD) ([2]; 20 mg/kg orally once a day, d21): 24.7 ± 2.3 g | Weight (g, mean ± SD) ([2]; 100 mg/kg orally once a day (administration interrupted), d0): 23.6 ± 0.7 g | Weight (g, mean ± SD) ([2]; 100 mg/kg orally once a day (administration interrupted), d3): 24.4 ± 1.8 g | Weight (g, mean ± SD) ([2]; 100 mg/kg orally once a day (administration interrupted), d7): 21.1 ± 1.9 g | Weight (g, mean ± SD) ([2]; 100 mg/kg orally once a day (administration interrupted), d10): 17.6 ± 1.8 g | Weight (g, mean ± SD) ([2]; 100 mg/kg orally once a day (administration interrupted), d14): 19.7 ± 2.0 g | Weight (g, mean ± SD) ([2]; 100 mg/kg orally once a day (administration interrupted), d17): 22.6 ± 1.5 g | Weight (g, mean ± SD) ([2]; 100 mg/kg orally once a day (administration interrupted), d21): 23.0 ± 2.4 g
